According to patent publication US5019573A, “Substituted dibenzofurans and methods of using same” (Euroceltique, S.A., priority 1989, dated 1991):

How the values were obtained:
[1] = test system: LTB4-induced adhesion of human neutrophils to latex beads; test: LTB4-induced neutrophil latex bead adhesion; type: cell-based; settings: albumin-coated latex beads, read-out: LTB-Induced Neutrophil Bead Adhesion % Inhibition at 30 uM
Method: (§1) Each compound was tested in two in vitro models of LTB4 induced cell function. The cellular responses measured are presumed to be mediated via specific interactions of LTB4 with cellular receptors.
(§2) The cellular responses studied include 1) LTB4 -induced degranulation (release of myeloperoxidase) from purified human neutrophils and 2) LTB4 -induced adhesion of human neutrophils to latex beads. Each putative antagonist was tested at 30 uM for its effect on each response. Selected compounds were tested in a concentration-response fashion.
(2) Neutrophil Latex Bead Adhesion
Latex bead suspension (0.6 ml; 10% aqueous suspension; particle diameter=1u) is pipeted into a 1.5 ml eppendorf centrifuge tube. The beads are pelleted by centrifugation, the supernatant is discarded and the beads are washed 2 times with 1 ml 0.9% saline. To the pelleted beads is added 0.5 ml saline and 0.5 ml 20 mg/ml human serum albumin (HSA) in Krebs-Ringer buffer. Allow bead-albumin mixture to sit at room temperature for 10 minutes, centrifuge for 1 minute and remove the supernatant, and wash albumin-coated beads 3 times with saline. Resuspend the beads in 1 ml of Krebs-Ringer.
Human neutrophils are prepared as described for the neutrophil degranulation assay and 10^7 cells are added to 0.3 ml of Krebs-Ringerin the presence and absence of LTB4 and putative antagonist and are incubated at 37° for an appropriate period of time.
The albumin-coated beads are then added in 0.05 ml to give a final bead concentration of 1% v/v, resulting in a bead to neutrophil ratio of 100:1. The tubes containing cells and beads are then placed in an agitating water bath at 37° C. and 120 oscillation per minute for 10 minutes. The reaction is stopped by adding an equal volume of 2.5% gluteraldehyde in saline. The reaction tubes are allowed to stand at room temperature for 30 minutes. The cells are then washed 3 times (with centrifugation at 1000 rpm for 5 minutes) with saline to remove the unadhered latex beads and resuspended in 0.3 ml saline.
Wet mounts are prepared and adherence is examined by light microscopy at 400x. Adherence is scored by counting five randomly placed fields of at least 50 neutrophils per field. […] Activity of the antagonists is expressed as the percent inhibition of LTB4 induced adherence.

[2] = test system: LTB4-induced degranulation of purified human neutrophils; test: LTB4-induced neutrophil degranulation (myeloperoxidase release); type: cell-based; settings: LTB4-induced MPO release; for inhibition at 30 µM: read-out: LTB-Induced Neutrophil Degranulation % Inhibition at 30 uM; for IC50: concentration-response, read-out: LTB-Induced Neutrophil Degranulation I50
Method: as §1, §2
(1) Neutrophil Degranulation Assay
Neutrophils are isolated from human venous blood via a twostep sedimentation procedure, and contaminating erythrocytes are selectively lysed. The neutrophils were preincubated in 0.25% Hanks buffer containing bovine serum albumin (BSA) with 5 ug Cytochalasin B/ml cells for 5 minutes at 37° C. Neutrophils (4×10^6) are added to stimuli (LTB4 or buffer control) in the presence and absence of antagonist in Krebs-Ringer buffer to a final volume of 1.0 ml, and incubated at 37° C. for appropriate periods of time. At the end of the reaction period the neutrophils are pelleted by centrifugation at 3000 rpm for 5 minutes at 4° C.
Aliquots (0.2 ml) of the supernatants are added to polystyrene tubes to which are added the following: 0.6 ml )>25% Hanks BSA, 0.5 ml MPO buffer (0.2 M NaPO4, pH 6.2) and to start the color reaction 0.2 ml of a 1:1 v/v 0.05% H2 O2 :1.25 mg/ml dimethoxybenzidine (DMB). The reaction is allowed to run at room temperature for 15 minutes and is stopped by the addition of 0.05 ml 2% sodium azide. The developed color is quantitated in a spectrophotometer at 460 nm. The amount of myeloperoxidase (MPO) released by LTB4 stimulation can thus be determined. In order to determine the total amount of MPO in the cells an unstimulated control tube of neutrophils is lysed using 0.01 ml 10% Triton TX and the total MPO is determined via the color reaction and spectrophotometer reading. The activity of a given concentration of LTB4 is expressed as the percentage of the total MPO released. The activity of antagonists at a given concentration is expressed as a percentage of inhibiton of LTB4 -induced MPO release at a single concentration cf LTB4.

Molecule `O=C(O)CC(O)c1ccc2oc3ccc(C(O)Cc4ccccc4)cc3c2c1` (centres unmarked) [Compound 11, 3-[2-[8-(1-Hydroxy)-2-phenylethyl]dibenzofuranyl]-3-hydroxypropionic Acid] has an inhibition at 30 µM [1] of 7% and an inhibition at 30 µM [2] of 35%.
For `CN(C)C(=O)CC(O)c1ccc2oc3ccc(C(O)Cc4ccccc4)cc3c2c1` (centres unmarked) [Compound 12, N,N-Dimethyl-3-[2-[8-(1-hydroxy)-2-phenylethyl]dibenzofuranyl]-3-hydroxypropanamide], the inhibition at 30 µM [1] was 14%, the inhibition at 30 µM [2] was 100% and the IC50 [2] was 13 µM.
In the case of `CN(C)C(=O)CCC(O)c1ccc2oc3ccc(C(O)Cc4ccccc4)cc3c2c1` (centres unmarked) [Compound 22, N,N-Dimethyl-4-[2-[8-(1-hydroxy)-2-phenylethyl]dibenzofuran-2-yl]-4-hydroxybutanamide], the inhibition at 30 µM [1] is reported as 1% and the inhibition at 30 µM [2] is reported as 100%.
Molecule `O=C(CCC(O)c1ccc2oc3ccc(C(O)Cc4ccccc4)cc3c2c1)N1CCCC1` (centres unmarked) [Compound 23, N-[4-[2-[8-(1-Hydroxy)-2-phenylethyl]dibenzofuranyl]-4-hydroxybutanoyl]pyrrolidine] has an inhibition at 30 µM [1] of 10% and an inhibition at 30 µM [2] of 62%.
For `O=C(O)CCCC(O)c1ccc2oc3ccc(C(O)Cc4ccccc4)cc3c2c1` (centres unmarked) [Compound 40, Sodium 5-[2-[8-(1-Hydroxy)-2-phenylethyl]dibenzofuranyl]-5-hydroxypentanoate], the inhibition at 30 µM [1] was 5% and the inhibition at 30 µM [2] was 38%.
Molecule `CN(C)C(=O)CCCC(O)c1ccc2oc3ccc(C(O)Cc4ccccc4)cc3c2c1` (centres unmarked) [Compound 41, N,N-Dimethyl-5-[2-[8-(1-hydroxy)-2-phenylethyl]dibenzofuranyl}-5-hydroxypentanamide] has an inhibition at 30 µM [1] of 2%, an inhibition at 30 µM [2] of 57% and an IC50 [2] of 9 µM.
Molecule `O=C(CCCC(O)c1ccc2oc3ccc(C(O)Cc4ccccc4)cc3c2c1)N1CCCC1` (centres unmarked) [Compound 42, N-[5-[2-[8-(1-Hydroxy)-2-phenylethyl]dibenzofuranyl]-5 hydroxypentanoyl]pyrrolidine] has an inhibition at 30 µM [1] of 12%, an inhibition at 30 µM [2] of 100% and an IC50 [2] of 19 µM.
